What all share (assay): HIV-1 RT Assay
In test [1] the target is T1, Gag-Pol polyprotein [588-1027,K690N]/[588-1147,K690N] (Human immunodeficiency virus 1, UniProt P04585, K690N).
T1 construct: 588-1027; 588-1147
The text has this:
(§1) The IC50 of reverse transcriptase is the concentration that inhibits 50% of recombinant HIV-1 RT RNA-directed DNA polymerase activity in vitro.

Test [2] has as its target T2, Gag-Pol polyprotein [588-1127,Y768C]/[588-1147,Y768C] (Human immunodeficiency virus 1, UniProt P04585, Y768C).
T2 construct: 588-1127; 588-1147
Description: as §1

Test [3] addresses T3, Gag-Pol polyprotein [588-1027]/[588-1147] (Human immunodeficiency virus 1, UniProt P04585).
T3 construct: 588-1027; 588-1147
Description: as §1

Some results are limits rather than exact numbers.

For the compound `Cc1c(C(C)(C)C)s/c(=N\S(=O)(=O)c2ccccc2)n1C`, the values for the IC50 in test [1], in test [2] and in test [3] were more than 50 µM, 5.1 µM and 4.9 µM, respectively.
The matching figures for `Cc1c(C(C)(C)C)s/c(=N\S(=O)(=O)c2cc(Cl)ccc2N)n1C` [2-amino-N-[(2Z)-5-tert-butyl-3,4-dimethyl-2,3-dihydro-1,3-thiazol-2-ylidene]-5-chlorobenzene-1-sulfonamide]: 17 µM, 0.11 µM and 0.19 µM.
For `Cc1c(C(C)C)s/c(=N\S(=O)(=O)c2cc(F)ccc2C#N)n1C` [2-cyano-N-[(2Z)-3,4-dimethyl-5-(propan-2-yl)-2,3-dihydro-1,3-thiazol-2-ylidene]-5-fluorobenzene-1-sulfonamide] the same measures were more than 10 µM, 2.1 µM and 0.092 µM.
For `Cc1c(C(C)(C)C)s/c(=N\S(=O)(=O)c2cc(Cl)ccc2C(N)=O)n1C` [2-{[(5-tert-Butyl-3,4-dimethyl-1,3-thiazol-2(3H)-ylidene)amino]sulfonyl}-4-chlorobenzamide] the same measures were more than 10 µM, more than 10 µM and more than 10 µM.
For `Cc1c(C(C)C)s/c(=N\S(=O)(=O)c2cc(Br)ccc2C#N)n1C` [5-Bromo-2-cyano-N-(5-isopropyl-3,4-dimethyl-1,3-thiazol-2(3H)-ylidene)benzenesulfonamide], the half-maximal inhibitory concentration (IC50) is 3.9 µM in test [1], 0.26 µM in test [2] and 0.018 µM in test [3].
Regarding `CC(C)c1s/c(=N\S(=O)(=O)c2cc(Cl)ccc2C#N)n(C)c1Cl` [5-Chloro-N-(4-chloro-5-isopropyl-3-methyl-1,3-thiazol-2(3H)-ylidene)-2-cyanobenzenesulfonamide], the results for the concentration for half-maximal inhibition (IC50) in test [1], in test [2] and in test [3] were 3.7 µM, 0.091 µM and 0.009 µM, respectively.
Turning to `CC(C)c1s/c(=N\S(=O)(=O)c2cc(Br)ccc2O)n(C)c1Cl` [5-bromo-N-[(2Z)-4-chloro-3-methyl-5-(propan-2-yl)-2,3-dihydro-1,3-thiazol-2-ylidene]-2-hydroxybenzene-1-sulfonamide], the IC50 in test [1] was 0.043 µM; in test [2], 0.013 µM; in test [3], 0.0043 µM.
With `Cc1c(C(C)C)s/c(=N\S(=O)(=O)c2cc(Cl)ccc2C#N)n1C` [5-chloro-2-cyano-N-[(2Z)-3,4-dimethyl-5-(propan-2-yl)-2,3-dihydro-1,3-thiazol-2-ylidene]benzene-1-sulfonamide], the IC50 in test [1] was 5.9 µM; in test [2], 0.2 µM; in test [3], 0.011 µM.
The matching figures for `CC(C)c1s/c(=N\S(=O)(=O)c2cc(Cl)ccc2O)n(C)c1Cl` [5-chloro-N-[(2Z)-4-chloro-3-methyl-5-(propan-2-yl)-2,3-dihydro-1,3-thiazol-2-ylidene]-2-hydroxybenzene-1-sulfonamide]: 0.17 µM, 0.021 µM and 0.0094 µM.
For `CC(=O)Nc1ccc(Cl)cc1S(=O)(=O)/N=c1\sc(C(C)(C)C)c(C)n1C` [N-(2-{[(5-tert-Butyl-3,4-dimethyl-1,3-thiazol-2(3H)-ylidene)amino]sulfonyl}-4-chlorophenyl)acetamide] the same measures were more than 50 µM, more than 50 µM and more than 50 µM.
With `CC(C)c1s/c(=N\S(=O)(=O)c2cc(C#N)ccc2C#N)n(C)c1Cl` [N-(4-Chloro-5-isopropyl-3-methyl-1,3-thiazol-2(3H)-ylidene)-2,5-dicyanobenzenesulfonamide], the half-inhibitory concentration (IC50) was found to be 3 µM in test [1], 0.21 µM in test [2] and 0.0095 µM in test [3].
Consider `COc1ccccc1S(=O)(=O)/N=c1\sc(C(C)(C)C)c(C)n1C` [N-(5-tert-Butyl-3,4-dimethyl-1,3-thiazol-2(3H)-ylidene)-2-methoxybenzenesulfonamide], for which the IC50 is more than 50 µM in test [1] (pH 8.4, 37 °C) and 50 µM in test [3] (pH 8.4, 37 °C).
Turning to `Cc1c(C(C)(C)C)s/c(=N\S(=O)(=O)c2ccc(Cl)cc2)n1C` [N-(5-tert-Butyl-3,4-dimethyl-1,3-thiazol-2(3H)-ylidene)-4-chlorobenzenesulfonamide], the IC50 in test [1] (pH 8.4, 37 °C) was more than 10 µM; in test [2] (pH 8.4, 37 °C), more than 10 µM; in test [3] (pH 8.4, 37 °C) it was more than 10 µM.
Regarding `Cc1c(C(C)(C)C)s/c(=N\S(=O)(=O)c2ccc(O)cc2)n1C` [N-(5-tert-Butyl-3,4-dimethyl-1,3-thiazol-2(3H)-ylidene)-4-hydroxybenzenesulfonamide], the IC50 in test [1], in test [2] and in test [3] was more than 10 µM each time.
As to `COc1ccc(S(=O)(=O)/N=c2\sc(C(C)(C)C)c(C)n2C)cc1` [N-(5-tert-Butyl-3,4-dimethyl-1,3-thiazol-2(3H)-ylidene)-4-methoxybenzenesulfonamide], the half-maximal inhibitory concentration (IC50) in test [1], in test [2] and in test [3] was more than 10 µM each time.
For the compound `Cc1c(C(C)(C)C)s/c(=N\S(=O)(=O)c2ccc([N+](=O)[O-])cc2)n1C` [N-(5-tert-Butyl-3,4-dimethyl-1,3-thiazol-2(3H)-ylidene)-4-nitrobenzenesulfonamide], the IC50 in test [1] (pH 8.4, 37 °C) is more than 10 µM; in test [2] (pH 8.4, 37 °C), more than 10 µM; in test [3] (pH 8.4, 37 °C), more than 10 µM.
Consider `Cc1c(C(C)(C)C)s/c(=N\S(=O)(=O)c2cc(Cl)ccc2C#N)n1C` [N-(5-tert-Butyl-3,4-dimethyl-1,3-thiazol-2(3H)-ylidene)-5-chloro-2-cyanobenzenesulfonamide], for which the 50% inhibitory concentration (IC50) in test [1] is more than 50 µM; in test [2] it was 0.069 µM; in test [3] it was 0.18 µM.
For `Cc1c(C(C)(C)C)s/c(=N\S(=O)(=O)c2cc(Cl)ccc2O)n1C` [N-(5-tert-Butyl-3,4-dimethyl-1,3-thiazol-2(3H)-ylidene)-5-chloro-2-hydroxybenzenesulfonamide] the same measures were 1.1 µM, 0.011 µM and 0.032 µM.
As to `Cc1c(C(C)(C)C)s/c(=N\S(=O)(=O)c2ccccc2Cl)n1C` [N-[(2Z)-5-tert-butyl-3,4-dimethyl-2,3-dihydro-1,3-thiazol-2-ylidene]-2-chlorobenzene-1-sulfonamide], the half-maximal inhibitory concentration (IC50) was more than 10 µM in test [1] (pH 8.4, 37 °C); more than 10 µM in test [2] (pH 8.4, 37 °C); more than 10 µM in test [3] (pH 8.4, 37 °C).
`Cc1c(C(C)(C)C)s/c(=N\S(=O)(=O)c2ccccc2O)n1C` [N-[(2Z)-5-tert-butyl-3,4-dimethyl-2,3-dihydro-1,3-thiazol-2-ylidene]-2-hydroxybenzene-1-sulfonamide]: the IC50 in test [1] is 30 µM; in test [2], 0.41 µM; in test [3], 1.6 µM.
Consider `Cc1c(C(C)(C)C)s/c(=N\S(=O)(=O)c2ccccc2[N+](=O)[O-])n1C` [N-[(2Z)-5-tert-butyl-3,4-dimethyl-2,3-dihydro-1,3-thiazol-2-ylidene]-2-nitrobenzene-1-sulfonamide], for which the IC50 in test [1] (pH 8.4, 37 °C) is more than 50 µM; in test [2] (pH 8.4, 37 °C), 36 µM; in test [3] (pH 8.4, 37 °C) it was more than 50 µM.
As for `Cc1c(C(C)(C)C)s/c(=N\S(=O)(=O)c2cccc(Cl)c2O)n1C` [N-[(2Z)-5-tert-butyl-3,4-dimethyl-2,3-dihydro-1,3-thiazol-2-ylidene]-3-chloro-2-hydroxybenzene-1-sulfonamide], the IC50 is more than 50 µM in test [1] and 6.3 µM in test [3].
With `Cc1c(C(C)(C)C)s/c(=N\S(=O)(=O)c2cccc(Cl)c2)n1C` [N-[(2Z)-5-tert-butyl-3,4-dimethyl-2,3-dihydro-1,3-thiazol-2-ylidene]-3-chlorobenzene-1-sulfonamide], the IC50 stood at 11 µM in test [1] (pH 8.4, 37 °C); 0.044 µM in test [2] (pH 8.4, 37 °C); 0.3 µM in test [3] (pH 8.4, 37 °C).
For `Cc1c(C(C)(C)C)s/c(=N\S(=O)(=O)c2cccc(O)c2)n1C` [N-[(2Z)-5-tert-butyl-3,4-dimethyl-2,3-dihydro-1,3-thiazol-2-ylidene]-3-hydroxybenzene-1-sulfonamide], the IC50 is more than 50 µM in test [1], 14 µM in test [2] and 8.8 µM in test [3].
Turning to `COc1cccc(S(=O)(=O)/N=c2\sc(C(C)(C)C)c(C)n2C)c1` [N-[(2Z)-5-tert-butyl-3,4-dimethyl-2,3-dihydro-1,3-thiazol-2-ylidene]-3-methoxybenzene-1-sulfonamide], the concentration for half-maximal inhibition (IC50) in test [1] is more than 50 µM; in test [3], 8.8 µM.
As to `Cc1c(C(C)(C)C)s/c(=N\S(=O)(=O)c2cc(Cl)ccc2NS(C)(=O)=O)n1C` [N-[(2Z)-5-tert-butyl-3,4-dimethyl-2,3-dihydro-1,3-thiazol-2-ylidene]-5-chloro-2-methanesulfonamidobenzene-1-sulfonamide], the IC50 in test [1], in test [2] and in test [3] was more than 50 µM throughout.
As for `Cc1c(C(C)(C)C)s/c(=N\S(=O)(=O)c2cc(Cl)ccc2[N+](=O)[O-])n1C` [N-[(2Z)-5-tert-butyl-3,4-dimethyl-2,3-dihydro-1,3-thiazol-2-ylidene]-5-chloro-2-nitrobenzene-1-sulfonamide], the figures for the IC50 in test [1] and in test [3] were more than 50 µM and 2.4 µM, respectively.
For the compound `COC(=O)c1ccc(Cl)cc1S(=O)(=O)/N=c1\sc(C(C)(C)C)c(C)n1C` [methyl 2-{[(2Z)-5-tert-butyl-3,4-dimethyl-2,3-dihydro-1,3-thiazol-2-ylidene]sulfamoyl}-4-chlorobenzoate], the half-maximal inhibitory concentration (IC50) in test [1] is more than 10 µM; in test [2], 10 µM; in test [3] it was more than 10 µM.
Regarding `Cc1c(C(C)C)s/c(=N\S(=O)(=O)c2cc(C#N)ccc2C#N)n1C` [thiazolidenebenzenesulfonamide deriv.], the half-maximal inhibitory concentration (IC50) in test [1] turned out to be 4.1 µM; in test [2], 0.47 µM; in test [3] it was 0.012 µM.
